Measurements from US8785457B2 (Cellzome Limited, priority 2009, dated 2014).
Like-named read-outs stand apart in the source and are kept apart here.

Molecular target: T1, mTOR (Homo sapiens, UniProt P42345)
T1 construct: endogenous in cells; host or cells: Jurkat, clone E6-1 (ATCC TIB-152) cell lysate
Assay: mTOR kinobeads assay (competitive binding in Jurkat cell lysate, immunodetection)
Settings: kinobeads assay
Summary of the method: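 IC50 derived from dose-response curves of mTOR captured on immobilized phenylmorpholin-chromen beads, detected by antibody dot blot with infrared fluorescence.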

[1] = Table 4, read-out: Inhibition values (IC50) mTor
[2] = Table 6, read-out: Inhibition values (IC50) mTOR

| IC50 [1] | IC50 [2] | SMILES |
| --- | --- | --- |
| < 100 nM | < 100 nM | CCNC(=O)Nc1ccc(-c2nc3c(c(N4CCOC[C@@H]4C)n2)CN(C=O)C3)cc1 [Example 8, (S)-1-ethyl-3-(4-(6-formyl-4-(3-methylmorpholino)-6,7-dihydro-5H-pyrrolo[3,4-d]pyrimidin-2-yl)phenyl)urea] |
| 100 to 1000 nM | 100 to 1000 nM | C[C@H]1COCCN1c1nc(-c2ccc(NC(=O)NC3CC3)cc2)nc2c1CNCC2 [Example 11, (S)-1-cyclopropyl-3-(4-(4-(3-methylmorpholino)-5,6,7,8-tetrahydropyrido[4,3-d]pyrimidin-2-yl)phenyl)urea] |
| 100 to 1000 nM | 100 to 1000 nM | CCNC(=O)Nc1ccc(-c2nc3c(c(N4CCOC[C@@H]4C)n2)CNCC3)cc1 [Example 12, (S)-1-ethyl-3-(4-(4-(3-methylmorpholino)-5,6,7,8-tetrahydropyrido[4,3-d]pyrimidin-2-yl)phenyl)urea] |
| < 100 nM | < 100 nM | CCNC(=O)Nc1ccc(-c2nc3c(c(N4CCOC[C@@H]4C)n2)CCNC3)cc1 [Example 13, (S)-1-ethyl-3-(4-(4-(3-methylmorpholino)-5,6,7,8-tetrahydropyrido[3,4-d]pyrimidin-2yl)phenyl)urea] |
| < 100 nM | < 100 nM | C[C@H]1COCCN1c1nc(-c2ccc(NC(=O)NC3CC3)cc2)nc2c1CCNC2 [Example 15, (S)-1-cyclopropyl-3-(4-(4-(3-methylmorpholino)-5,6,7,8-tetrahydropyrido[3,4-d]pyrimidin-2-yl)phenyl)urea] |
| < 100 nM | < 100 nM | CNC(=O)Nc1ccc(-c2nc3c(c(N4CCOC[C@@H]4C)n2)CCNC3)cc1 [Example 16, (S)-1-methyl-3-(4-(4-(3-methylmorpholino)-5,6,7,8-tetrahydropyrido[3,4-d]pyrimidin-2-yl)phenyl)urea] |
| < 100 nM | < 100 nM | C[C@H]1COCCN1c1nc(-c2ccc(NC(=O)NC3CC3)cc2)nc2c1CN(C(=O)C1CC1)C2 [Example 17, (S)-1-(4-(6-(cyclopropanecarbonyl)-4-(3-methylmorpholino)-6,7-dihydro-5H-pyrrolo[3,4-d]pyrimidin-2-yl)phenyl)-3-cyclopropylurea] |
| < 100 nM | < 100 nM | CCNC(=O)Nc1ccc(-c2nc3c(c(N4CCOC[C@@H]4C)n2)CN(C(C)=O)C3)cc1 [Example 18, (S)-1-(4-(6-acetyl-4-(3-methylmorpholino)-6,7-dihydro-5H-pyrrolo[3,4-d]pyrimidin-2-yl)phenyl)-3-ethylurea] |
| < 100 nM | < 100 nM | CC(=O)N1Cc2nc(-c3ccc(NC(=O)NC4CC4)cc3)nc(N3CCOC[C@@H]3C)c2C1 [Example 20, (S)-1-(4-(6-acetyl-4-(3-methylmorpholino)-6,7-dihydro-5H-pyrrolo[3,4-d]pyrimidin-2-yl)phenyl)-3-cyclopropylurea] |
| 100 to 1000 nM | 100 to 1000 nM | CCNC(=O)Nc1ccc(-c2nc3c(c(N4CCOC[C@@H]4C)n2)CN(C(=O)C(C)(C)C)C3)cc1 [Example 22, (S)-1-ethyl-3-(4-(4-(3-methylmorpholino)-6-pivaloyl-6,7-dihydro-5H-pyrrolo[3,4-d]pyrimidin-2-yl)phenyl)urea] |
| < 100 nM | < 100 nM | CCNC(=O)Nc1ccc(-c2nc3c(c(N4CCOC[C@@H]4C)n2)CN(C)C3)cc1 [Example 26, (S)-1-ethyl-3-(4-(6-methyl-4-(3-methylmorpholino)-6,7-dihydro-5H-pyrrolo[3,4-d]pyrimidin-2-yl)phenyl)urea] |
| < 100 nM | < 100 nM | C[C@H]1COCCN1c1nc(-c2ccc(NC(=O)NC3CC3)cc2)nc2c1CN(CC1CC1)C2 [Example 30] |
| < 100 nM | < 100 nM | CCNC(=O)Nc1ccc(-c2nc3c(c(N4CCOC[C@@H]4C)n2)CN(S(C)(=O)=O)C3)cc1 [Example 32, (S)-1-ethyl-3-(4-(4-(3-methylmorpholino)-6-(methylsulfonyl)-6,7-dihydro-5H-pyrrolo[3,4-d]pyrimidin-2-yl)phenyl)urea] |
